The values below come from patent US10538487B2, “Sulfonylureas and related compounds and use of same” (priority 2015, dated 2020).

In data set [1] the target is NLRP3 inflammasome (Homo sapiens, UniProt Q96P20). Kind of data set: Inhibition of IL-1β release, NLRP3 inflammasome activation assay in HMDM. Format: cell-based. The protocol:
The following assays can be used to determine inhibitory activity of test compounds on the NLRP3 inflammasome using common stimuli such as adenosine triphosphate, nigericin, LeuLeu-OMe or monosodium urate crystals (MSU).
To generate HMDM, human monocytes are isolated from buffy coat blood using Ficoll-Plaque Plus (GE Healthcare) and density centrifugation. CD14^+ cell selection is performed using MACS magnetic beads (Miltenyl Biotec).
HMDM are seeded at 1×10^5/ml. […] Medium is removed and replaced with serum free medium (SFM) containing test compound 30 min prior to NLRP3 stimulation. […] ATP can be sourced from Sigma Aldrich, nigericin and MSU from Invivogen and LeuLeu-Ome from Chem-Impex International.
For ELISA and cell death assays cells are seeded in 96 well plates. Supernatants are removed and analysed using ELISA kits according to the manufacturer's instructions (DuoSet® R&D Systems, ReadySetGo!® eBioscience, BD OptEIA™, or Perkin Elmer AlphaLISA®). Cell death is assessed by measurement of LDH release relative to a 100% cell lysis control using the CytoTox96® non-radioactive cytotoxicity assay (Promega).

Data set [2] is described as follows: Single dose pharmacokinetic study in mice (iv 4 mg/Kg, po 20 mg/Kg), plasma concentration post-dosing. The data set is classed as in vivo, mouse. The following applies: mice, iv dose of 4 mg/Kg and po dose of 20 mg/Kg. The protocol: This is advantageous leading to comparatively lower doses or less frequent administration. The procedure followed was: Male C57BL/6 mice were used at 7-9 weeks age with 3 animals per group. Mice were dosed with test compound using single intravenous bolus or oral gavage. Blood samples were taken via submandibular or saphenous vein for analysis of plasma concentrations of compound by LC-MS/MS at the following timepoints: IV (3 mice): 0.083, 0.25, 0.5, 1, 2, 4, 8 and 24 hours post dosing, PO (3 mice): 0.25, 0.5, 1, 2, 4, 8 and 24 hours post dosing. LC-MS/MS method for the quantitative determination of test compound in corresponding biological matrix was developed. […] The results are shown graphically in FIGS. 1A to 1C (MCC950) and FIGS. 2A to 2C (MCC7840).

Setting [3] is: inhibition of IL-1β release, class symbols, read-out: Avg. IL-1β IC50 HMDM.
[4] abbreviates: commercial compounds (Table 9), read-out: HMDM IC50 vs NLRP3.

The structures appear in SMILES notation. Like-named read-outs stand apart in the source and are kept apart here. Some results are limits rather than exact numbers.

Sequence of NLRP3 inflammasome (Q96P20 whole entry): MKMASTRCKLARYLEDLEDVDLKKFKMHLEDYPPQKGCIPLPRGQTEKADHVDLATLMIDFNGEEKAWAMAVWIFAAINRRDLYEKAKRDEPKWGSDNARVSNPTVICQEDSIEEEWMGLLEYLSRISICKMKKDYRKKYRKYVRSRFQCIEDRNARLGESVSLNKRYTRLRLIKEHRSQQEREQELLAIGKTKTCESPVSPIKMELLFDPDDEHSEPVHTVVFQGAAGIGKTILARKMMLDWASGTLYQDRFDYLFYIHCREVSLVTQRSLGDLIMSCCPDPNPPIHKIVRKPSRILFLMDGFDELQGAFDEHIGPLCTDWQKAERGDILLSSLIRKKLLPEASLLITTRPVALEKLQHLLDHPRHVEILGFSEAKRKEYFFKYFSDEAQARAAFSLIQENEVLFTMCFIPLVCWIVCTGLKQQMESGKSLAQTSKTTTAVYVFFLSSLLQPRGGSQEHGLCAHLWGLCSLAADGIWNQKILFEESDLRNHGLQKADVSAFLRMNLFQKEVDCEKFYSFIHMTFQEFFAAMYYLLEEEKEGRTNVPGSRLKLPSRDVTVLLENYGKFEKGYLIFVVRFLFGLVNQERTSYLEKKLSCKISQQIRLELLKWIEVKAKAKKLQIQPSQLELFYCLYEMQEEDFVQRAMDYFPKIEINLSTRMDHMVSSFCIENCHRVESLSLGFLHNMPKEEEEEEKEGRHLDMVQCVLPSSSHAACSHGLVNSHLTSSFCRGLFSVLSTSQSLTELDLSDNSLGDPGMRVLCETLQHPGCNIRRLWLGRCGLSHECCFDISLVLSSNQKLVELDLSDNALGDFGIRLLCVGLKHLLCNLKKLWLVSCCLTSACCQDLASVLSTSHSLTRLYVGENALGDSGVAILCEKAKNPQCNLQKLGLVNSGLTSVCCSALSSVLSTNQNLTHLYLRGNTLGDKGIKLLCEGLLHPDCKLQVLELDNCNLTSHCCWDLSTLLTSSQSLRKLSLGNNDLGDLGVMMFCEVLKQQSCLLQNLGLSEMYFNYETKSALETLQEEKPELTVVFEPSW

As to `O=C(Nc1c2c(cc3c1CCC3)CCC2)NS(=O)(=O)c1ccn(Cc2ccccc2)n1` [1-benzyl-N-((1,2,3,5,6,7-hexahydro-s-indacen-4-yl)carbamoyl)-1H-pyrazole-3-sulfonamide], the IC50 in data set [1] (setting [3]) was below 10000 nM. `CC(C)c1cc(Cl)cc(C(C)C)c1NC(=O)NS(=O)(=O)c1cc(C(C)(C)O)n(C)n1` [sodium ((4-chloro-2,6-diisopropylphenyl)carbamoyl)((5-(2-hydroxypropan-2-yl)-1-methyl-1H-pyrazol-3-yl)sulfonyl)amide]: the IC50 in data set [1] (setting [3]) is below 100 nM. Same read-out and setting: next, `CC(C)c1cc(Cl)cc(C(C)C)c1NC(=O)NS(=O)(=O)c1cc(C(C)(C)O)n(-c2ccccc2)n1` [sodium ((4-chloro-2,6-diisopropylphenyl)carbamoyl)((5-(2-hydroxypropan-2-yl)-1-phenyl-1H-pyrazol-3-yl)sulfonyl)amide]: below 100 nM.

As for `CC(C)n1ccc(S(=O)(=O)NC(=O)Nc2c3c(cc4c2CCC4)CCC3)n1` [MCC7840, N-((1,2,3,5,6,7-hexahydro-s-indacen-4-yl)carbamoyl)-1-isopropyl-1H-pyrazole-3-sulfonamide], in data set [2], the “area under the curve (AUC) in comparison to MCC950” value is reported as “increased”, the “half-life in comparison to MCC950” value is on record as “extended half-life” and the “maximum concentration (Cmax) in comparison to MCC950” value is “increased maximum concentration (Cmax)”. Take `CC(C)c1cc(Cl)cc(C(C)C)c1NC(=O)NS(=O)(=O)c1ccc2ccccc2c1` [N-((4-chloro-2,6-diisopropylphenyl)carbamoyl)naphthalene-2-sulfonamide]: the IC50 in data set [1] (setting [3]) is below 10000 nM. On the same count and under the same terms, with `O=C(Nc1c2c(cc3c1CCC3)CCC2)NS(=O)(=O)C1CCCCC1` [N-((1,2,3,5,6,7-hexahydro-s-indacen-4-yl)carbamoyl)cyclohexanesulfonamide] the figure was below 10000 nM; with `CC(C)(O)c1coc(S(=O)(=O)NC(=O)Nc2c3c(cc4c2C(O)CC4)CCC3)c1` (centres unmarked) [N-((3-hydroxy-1,2,3,5,6,7-hexahydro-s-indacen-4-yl)carbamoyl)-4-(2-hydroxypropan-2-yl)furan-2-sulfonamide], below 1000 nM.

Take `CC(c1ccccc1)n1ccc(S(=O)(=O)NC(=O)Nc2c3c(cc4c2CCC4)CCC3)n1` (centres unmarked) [N-((1,2,3,5,6,7-hexahydro-s-indacen-4-yl)carbamoyl)-1-(1-phenylethyl)-1H-pyrazole-3-sulfonamide]: the IC50 in data set [1] (setting [3]) was below 1000 nM. Still for that read-out and setting: next, `CN(C)Cc1ccc(S(=O)(=O)NC(=O)Nc2c3c(cc4c2CCC4)CCC3)o1` [5-((dimethylamino)methyl)-N-((1,2,3,5,6,7-hexahydro-s-indacen-4-yl)carbamoyl)furan-2-sulfonamide]: below 100 nM. Turning to `COc1ccc2c(c1)C(=O)N(CCc1ccc(S(=O)(=O)NC(=O)NC3CCCCC3)cc1)C(=O)C2(C)C` [Gliquidone, N-(cyclohexylcarbamoyl)-4-(2-(7-methoxy-4,4-dimethyl-1,3-dioxo-3,4-dihydroisoquinolin-2(1H)-yl)ethyl)benzenesulfonamide, reference compound], in data set [1] (setting [4]), the IC50 is 32000 nM. With `CCc1ccc(S(=O)(=O)NC(=O)Nc2c3c(cc4c2CCC4)CCC3)o1` [5-ethyl-N-((1,2,3,5,6,7-hexahydro-s-indacen-4-yl)carbamoyl)furan-2-sulfonamide], in data set [1] (setting [3]), the IC50 was below 1000 nM. Turning to `Cc1cnc(C(=O)NCCc2ccc(S(N)(=O)=O)cc2)cn1` [Glipizide precursor, reference compound], the IC50 in data set [1] (setting [4]) is above 50000 nM. With `CC(C)c1cc(Cl)cc(C(C)C)c1NC(=O)NS(=O)(=O)c1cnc2ccccc2c1` [N-((4-chloro-2,6-diisopropylphenyl)carbamoyl)quinoline-3-sulfonamide], in data set [1] (setting [3]), the IC50 was below 100 nM.

In the case of `C#CCCC(=O)Nc1cccc(S(=O)(=O)NC(=O)Nc2c3c(cc4c2CCC4)CCC3)c1` [N-(3-(N-((1,2,3,5,6,7-hexahydro-s-indacen-4-yl)carbamoyl)sulfamoyl)phenyl)pent-4-ynamide], the IC50 in data set [1] (setting [3]) is below 1000 nM. Take `CC(C)c1cccc(C(C)C)c1NC(=O)NS(=O)(=O)c1cc(C(F)(F)F)n(C)n1` [N-((2,6-diisopropylphenyl)carbamoyl)-1-methyl-5-(trifluoromethyl)-1H-pyrazole-3-sulfonamide]: in data set [1] (setting [3]), the IC50 is below 10000 nM. Same read-out and setting: next, `O=C(Nc1c2c(cc3c1CCC3)CCC2)NS(=O)(=O)c1ccc2c(c1)S(=O)(=O)CC2` [N-((1,2,3,5,6,7-hexahydro-s-indacen-4-yl)carbamoyl)-2,3-dihydrobenzo[b]thiophene-6-sulfonamide 1,1-dioxide]: below 1000 nM; `O=C(Nc1c2c(cc3c1OCC3)OCC2)NS(=O)(=O)c1cccc(C2(C(F)(F)F)N=N2)c1` [N-((2,3,6,7-tetrahydrobenzo[1,2-b:4,5-b′]difuran-4-yl)carbamoyl)-3-(3-(trifluoromethyl)-3H-diazirin-3-yl)benzenesulfonamide]: below 10000 nM. Same read-out and setting: next, `CN(C)S(=O)(=O)NC(=O)Nc1c2c(cc3c1CCC3)CCC2` [N-[1,2,3,5,6,7-hexahydro-s-indacen-4-yl]-N′-[(dimethylamino)sulfonyl]urea]: below 10000 nM; `O=C(Nc1c2c(cc3c1CCC3)CCC2)NS(=O)(=O)c1cccc(C(=O)O)c1` [3-(N-((1,2,3,5,6,7-hexahydro-s-indacen-4-yl)carbamoyl)sulfamoyl)benzoic acid]: below 100 nM. Same read-out and setting: next, `NC(=O)c1cccc(S(=O)(=O)NC(=O)Nc2c3c(cc4c2CCC4)CCC3)c1` [3-(N-(1,2,3,5,6,7-Hexahydro-s-indacen-4-ylcarbamoyl)sulfamoyl)benzamide]: below 1000 nM; `NCCCn1cc(CCC(=O)Nc2cccc(S(=O)(=O)NC(=O)Nc3c4c(cc5c3CCC5)CCC4)c2)nn1` [3-(1-(3-aminopropyl)-1H-1,2,3-triazol-4-yl)-N-(3-(N-((1,2,3,5,6,7-hexahydro-s-indacen-4-yl)carbamoyl)sulfamoyl)phenyl)propanamide]: below 1000 nM. As to `CCC1=C(C)CN(C(=O)NCCc2ccc(S(N)(=O)=O)cc2)C1=O` [Glimespiride precursor, reference compound], in data set [1] (setting [4]), the IC50 is above 200000 nM. `O=C(Nc1c2c(cc3c1CCC3)CCC2)NS(=O)(=O)c1ccn(-c2ccccc2)n1` [N-((1,2,3,5,6,7-hexahydro-s-indacen-4-yl)carbamoyl)-1-phenyl-1H-pyrazole-3-sulfonamide]: the IC50 in data set [1] (setting [3]) was below 1000 nM. In the case of `CC(C)n1nc(S(=O)(=O)NC(=O)Nc2c3c(cc4c2CCC4)CCC3)cc1C(F)(F)F` [N-((1,2,3,5,6,7-hexahydro-s-indacen-4-yl)carbamoyl)-1-isopropyl-5-(trifluoromethyl)-1H-pyrazole-3-sulfonamide], in data set [1] (setting [3]), the IC50 is below 1000 nM. Still for that read-out and setting: next, `CC(C)c1cc(Cl)cc(C(C)C)c1NC(=O)NS(=O)(=O)c1cc(C(C)(C)O)co1` [sodium ((4-chloro-2,6-diisopropylphenyl)carbamoyl)((4-(2-hydroxypropan-2-yl)furan-2-yl)sulfonyl)amide]: below 100 nM; `O=C(Nc1c2c(cc3c1CCC3)CCC2)NS(=O)(=O)N1CCOCC1` [N-((1,2,3,5,6,7-hexahydro-s-indacen-4-yl)carbamoyl)morpholine-4-sulfonamide]: below 10000 nM; `C#CCNC(=O)CCc1ccc(S(=O)(=O)NC(=O)Nc2c3c(cc4c2CCC4)CCC3)cc1` [3-(4-(N-((1,2,3,5,6,7-hexahydro-s-indacen-4-yl)carbamoyl)sulfamoyl)phenyl)-N-(prop-2-yn-1-yl)propanamide]: below 100 nM. The same measure, in the same setting: next, `O=C(Nc1c2c(cc3c1CCC3)CCC2)NS(=O)(=O)c1ccc(Cl)cc1` [4-chloro-N-((1,2,3,5,6,7-hexahydro-s-indacen-4-yl)carbamoyl)benzenesulfonamide]: below 1000 nM. The same measure, in the same setting: next, `O=C(Nc1c2c(cc3c1CCC3)CCC2)NS(=O)(=O)c1ccn(C(F)(F)F)n1` [N-((1,2,3,5,6,7-hexahydro-s-indacen-4-yl)carbamoyl)-1-(trifluoromethyl)-1H-pyrazole-3-sulfonamide]: below 100 nM.

Take `O=C(Nc1c2c(cc3c1CCC3)CCC2)NS(=O)(=O)c1cccc(-n2cc(-c3ccccc3)nn2)c1` [N-((1,2,3,5,6,7-hexahydro-s-indacen-4-yl)carbamoyl)-3-(4-phenyl-1H-1,2,3-triazol-1-yl)benzenesulfonamide]: the half-inhibitory concentration (IC50) in data set [1] (setting [3]) is below 10000 nM.

In the case of `O=C(Nc1c2c(cc3c1CCC3)CCC2)NS(=O)(=O)C1CCOCC1` [N-((1,2,3,5,6,7-hexahydro-s-indacen-4-yl)carbamoyl)tetrahydro-2H-pyran-4-sulfonamide], the IC50 in data set [1] (setting [3]) is below 1000 nM. Still for that read-out and setting: with `COc1cc(NC(=O)NS(=O)(=O)c2cc(C(C)(C)O)co2)c2ncccc2c1` [4-(2-hydroxypropan-2-yl)-N-((6-methoxyquinolin-8-yl)carbamoyl)furan-2-sulfonamide] the figure was below 10000 nM; with `O=C(Nc1c2c(cc3c1CCC3)CCC2)NS(=O)(=O)c1cc(C(F)(F)F)ccn1` [N-((1,2,3,5,6,7-hexahydro-s-indacen-4-yl)carbamoyl)-4-(trifluoromethyl)pyridine-2-sulfonamide], below 100 nM.
